Assay results taken from patent US4061645A, “2-Trichloromethyl-5-methylsulfinyl-1,3,4-thiadiazole” (Schering Aktiengesellschaft, priority 1972, dated 1977).

How the values were obtained:
[1] = tested on: Fusarium oxysporum f. callistephi; experiment: Fusarium infested compost soil, Callistephus chinesis seedlings (Example 5); type: in vivo; conditions: of 4 seedlings
From the text: Steamed compost soil was inoculated with a spore suspension of Fusarium oxysporum f. callistephi. After homogeneous mixture of the products with the infested soil, the products were present as 20% powder preparations, and after a waiting period of 8 days, there were set out per concentration 4 seedlings of Callistephus chinesis, master aster "Sun Ray" as host plants.

[2] = tested on: Stemphylium ilicis; experiment: Agar test (Example 7), Stemphylium; type: cell-based; conditions: 10 ppm; 5 days at 22° C; control 100
Experimental: (§1) The fungicidal action of the agents according to the invention was tested in artificial nutrient media against plant-pathogenic fungi in Petri dishes (agar test). The procedure was to sterilize the medium consisting of 2% malt extract and 1.5% agar-agar powder. Before the solidification of the medium, the active substances were added to it, mixing thoroughly, so that the medium received 10 parts of active substance per million (ppm). After the solidification of the medium, the latter was inoculated with a platinum dropper which contained 100 spores each of the fungi to be tested, and after five days at 22° C, an evaluation was made by measuring the diameter of the colonies in mm.

[3] = tested on: Helminthosporium sativum; experiment: Agar test (Example 7), Helminthosporium; type: cell-based; conditions: 10 ppm; 5 days at 22° C; control 100
Experimental: as §1

[4] = tested on: Rhizoctonia solani; experiment: Rhizoctonia solani infested compost soil, marrow peas (Example 3); type: in vivo; conditions: for Weight of fresh plant: 3 weeks; for Number of sound peas after 3 wks.: of 25 grains
From the text: Steamed compost soil was inoculated with mycelium of Rhizoctonia solani. After homogeneous mixture of the products with the infested soil, the products were present in the form of 20% powder preparations, the seeding of 25 grains of marrow peas of the variety "Miracle of Kelvedon" per concentration was effected without waiting period in clay dishes holding 1 liter of soil. The table lists the number of germinated sound peas, the weight of the fresh plant, and a root evaluation after a cultivation period of three weeks at 22°-25° C.

[5] = tested on: Botrytis cinerea; experiment: Agar test (Example 7), Botrytis; type: cell-based; conditions: 10 ppm; 5 days at 22° C; control 100
Experimental: as §1

[6] = tested on: Rhizoctonia solani; experiment: Limit concentration of soil-fungicidal effectiveness, Rhizoctonia solani, infested soil seeded with peas (Example 1); type: in vivo; conditions: 20 to 23 days, 22°-25° C; for minimal effective concentration: soil, 480 h, read-out: Limit concentration of the fungicidal effectiveness
Experimental: (§2) Limit concentrations of the soil-fungicidal effectiveness at homogeneous mixture of the products with the infested soil. Basic condition in the evaluation are a sound root formation without fungus necroses and germination of the seed of at least 90% compared with the result obtained in steamed soil. Per concentration there were seeded 25 grains of peas of the variety "Miracle of Kelvedon" (marrow pea) without a waiting period. The cultivation time in the tests was 20 to 23 days at a temperature of 22°-25° C. Four commercial products were included in the test series.
Rhizoctania solani: -- Steamed compost soil was inoculated with mycelium of Rhizoctonia solani.

[7] = tested on: Damping-off Fungi; experiment: Cotton seed disinfection, normal compost soil (Example 6); type: in vivo; conditions: 100 mg active ingr. per kg of seed; 10% formulation; 15 days
Experimental: Cotton seeds disinfected with 10% formulations were seeded in normal compost soil (Damping-off Fungi), 25 grains per concentration. After a cultivation time of 15 days at 22°-25° C, the number of germinated sound cotton seedlings and their weight as fresh plants were determined.

[8] = tested on: Asperqilus niger; experiment: Agar test (Example 7), Aspergillus; type: cell-based; conditions: 10 ppm; 5 days at 22° C; control 100
Experimental: as §1

[9] = tested on: Colletotrichum gloeosporioides; experiment: Agar test (Example 7), Colletotrichum; type: cell-based; conditions: 10 ppm; 5 days at 22° C; control 100
Experimental: as §1

[10] = tested on: Pythium ultimum; experiment: Limit concentration of soil-fungicidal effectiveness, Pythium ultimum, infested soil seeded with peas (Example 1); type: in vivo; conditions: 20 to 23 days, 22°-25° C
Experimental: as §2
Pythium ultimum: -- Steamed compost soil was inoculated with mycelium of Pythium ultimum

[11] = tested on: Pythium ultimum; experiment: Pythium ultimum infested compost soil, marrow peas (Example 2); type: in vivo; conditions: for Weight of fresh plant: 3 weeks; for Number of sound peas after 3 wks.: of 25 grains
From the text: Steamed compost soil was inoculated with mycelium of Pythium ultimum.

[12] = tested on: Meloidogyne incognita; experiment: Nematocidal action, infested compost soil, cucumber seeds (Example 8); type: in vivo; conditions: 30 days
Experimental: The products as 20% powder preparations were homogeneously admixed with a compost soil heavily infested by root gal nematodes. Without a waiting period, 20 cucumber seeds per concentration were seeded. After a cultivation time of 30 days at a temperature of 23°-25° C, the nematocidal action was evaluated by counting the root galls formed in the waterbath. The following table states the reduction of attack in percent. In the control, an average of 90 root galls per seedling had formed.

[13] = 50 mg active ingredient per liter of soil
[14] = 100 mg active ingredient per liter of soil
[15] = 10 mg active ingr. per liter of soil
[16] = 20 mg active ingr. per liter of soil
[17] = 30 mg active ingr. per liter of soil

Structure (SMILES) | Number of attacked plants after 3 weeks [1, 13] | Number of attacked plants after 3 weeks [1, 14] | diameter of the colonies [2] [mm] | diameter of the colonies [3] [mm] | Weight of fresh plant [4, 15] [g] | Number of sound peas after 3 wks. [4, 15] | Weight of fresh plant [4, 16] [g] | Number of sound peas after 3 wks. [4, 16] | Weight of fresh plant [4, 17] [g] | Number of sound peas after 3 wks. [4, 17] | diameter of the colonies [5] [mm] | minimal effective concentration [6] [µg/mL] | Sound plants in % [7] [%] | Weight of fresh plant [7] [g] | diameter of the colonies [8] [mm] | diameter of the colonies [9] [mm] | Limit concentration of the fungicidal effectiveness [10] | also measured
CS(=O)(=O)c1nnc(C(Cl)(Cl)Cl)s1 [Compound 21, 2-trichloromethyl-5-methylsulfonyl-1,3,4-thiadiazole] | 0 | 0 | 0 | 0 | 11 | 17 | 17 | 24 | 17 | 24 | 0 | 10 | 100 | 33 | 0 | 0 | – | –
CS(=O)(=O)c1nnc(C(F)(F)Cl)s1 [Compound 54] | – | – | – | – | – | – | – | – | – | – | – | – | – | – | – | – | 10 mg of active substance per lit | Limit concentration of the fungicidal effectiveness [6]: 20 mg of active substance per lit
CCCCC(Br)c1nnc(S(C)(=O)=O)s1 (stereo not shown) [Compound 52, 2-(1-bromopentyl)-5-methylsulfonyl-1,3,4-thiadiazole] | – | – | – | – | – | – | – | – | – | – | – | 100 | – | – | – | – | no effect | –
CC(C)CC(Br)c1nnc(S(C)(=O)=O)s1 (stereo not shown) [Compound 53, 2-(1-bromoisopentyl)-5-methylsulfonyl-1,3,4-thiadiazole] | – | – | – | – | – | – | – | – | – | – | – | 100 | – | – | – | – | no effect | –
C[S+]([O-])c1nnc(C(Cl)(Cl)Cl)s1 (stereo not shown) [Compound 8, 2-trichloromethyl-5-methylsulfinyl-1,3,4-thiadiazole] | 0 | 0 | 0 | 0 | 17 | 21 | 17 | 24 | 17 | 24 | 0 | 10 | 96 | 29 | 0 | 0 | – | Weight of fresh plant [11, 15]: 12 g; Number of sound peas after 3 wks. [11, 15]: 19; Weight of fresh plant [11, 16]: 22 g; Number of sound peas after 3 wks. [11, 16]: 24; Weight of fresh plant [11, 17]: 22 g; Number of sound peas after 3 wks. [11, 17]: 25
C[S+]([O-])c1nnc(C(F)(F)Cl)s1 (stereo not shown) [Compound 55] | – | – | – | – | – | – | – | – | – | – | – | – | – | – | – | – | 10 mg of active substance per lit | Limit concentration of the fungicidal effectiveness [6]: 10 mg of active substance per lit
C[S+]([O-])c1nnc(C(Cl)Cl)s1 (stereo not shown) [Compound 3, 2-dichloromethyl-5-methylsulfinyl-1,3,4-thiadiazole] | 0 | 0 | 0 | 0 | 0 | 0 | 2 | 2 | 21 | 22 | 36 | 30 | 100 | 29 | 50 | 0 | – | Weight of fresh plant [11, 15]: 22 g; Number of sound peas after 3 wks. [11, 15]: 24; Weight of fresh plant [11, 16]: 24 g; Number of sound peas after 3 wks. [11, 16]: 24; Weight of fresh plant [11, 17]: 22 g; Number of sound peas after 3 wks. [11, 17]: 25; Nematocidal action in % (reduction of attack) ([12]; 40 mg per liter of soil): 100%; Nematocidal action in % (reduction of attack) ([12]; 60 mg per liter of soil): 100%
